# Test results published in publication PMC3516535, “Rhesus Macaque Theta Defensins Suppress Inflammatory Cytokines and Enhance Survival in Mouse Models of Bacteremic Sepsis” (PLoS ONE, 2012).
# Bridge positions count the residues as written; N and C are the ends. Ends that are not written are not given here. Peptide text beside a SMILES is read from it.
# How the values were obtained:
# [1] = test system: lethal bacteremia; conditions: single systemic administration at time of bacterial challenge; cited from earlier work
# Excerpt: The macrocyclic structure of θ-defensins confers remarkable stability. […] RTD-1 was also well-tolerated when administered intravenously or subcutaneously to mice, rats, and chimpanzees. Following repeated injections, neither of two chimpanzees produced anti-RTD-1 antibody. […] The discovery of antimicrobial peptides and their proven roles in host defense has prompted studies to evaluate dive ...
# [2] = test system: human EDTA-anti-coagulated blood diluted 1∶10; test: TNF release assay in stimulated diluted whole blood (ELISA); assay type: cell-based; conditions: 4 h; for anti-TNF effectiveness relative to RTD-1 / hierarchy of anti-TNF potencies: E. coli-stimulated blood, N = 2
# [3] = test system: THP-1 monocytic cells; test: TNF release assay in LPS-stimulated THP-1 monocytes (ELISA); assay type: cell-based, human; conditions: 4 h, N = 2; for hierarchy of anti-TNF potencies: THP-1 in RPMI +5% human EDTA-plasma, 1 ng/ml K12 LPS
# Experimental: THP-1 monocytic cells (ATCC, Manassas, VA) were grown and maintained in RPMI-1640 medium containing 10% fetal bovine serum and penicillin/streptomycin. Cells were harvested by centrifugation, washed with RPMI-1640 medium and suspended at 5×10^5 cells/ml in fresh medium containing 5% human EDTA plasma.
# Peptides (RTDs 1–5, human neutrophil α-defensins) were aliquoted into wells of pyrogen-free 12- or 24-well plates wherein final peptide concentrations were 0–10 µg/ml. Wells were inoculated with 1×10^5 CFU/ml S. aureus or 100 CFU/ml E. coli, or 1–3 ng/ml of E. coli K12 LPS. Samples (5–10 µl) containing peptide or bacteria/LPS were placed on opposite sides of the plate well. Mixing commenced with the addition of 0.5 to 2.0 ml of 1∶10 diluted blood, PBLs (5×10^5/ml), or THP-1 cells (2–5×10^5 cells/ml). Plates were incubated at 37°C in 5% CO2 for 4 h with gentle mixing. […] Incubation mixtures were centrifuged at 200× g for 10 min at 22°C and supernatants were clarified by centrifugation at 23,000× g for 15 min at 4°C. Supernatant TNF was quantified by sandwich ELISA (OptEIA II; BD Biosciences; Hu TNF-α, Invitrogen) per suppliers’ directions, using a SpectraMax Plate Reader.
# [4] = test system: CLP sepsis; set-up: method as in PMID 12545019; conditions: multiple doses; cited from earlier work
Compound,anti-TNF effectiveness relative to RTD-1 [2],hierarchy of anti-TNF potencies [2],hierarchy of anti-TNF potencies [3],other results
"indolicidin: antimicrobial peptide from ungulates (ILPWKWPWWPWRR; ends and bridges not checked; UniProt P33046 131-143, looked up)",,,,protection against lethal bacteremia [1]: Protection
"CC[C@H](C)[C@@H]1NC(=O)[C@@H]2CSSC[C@H](NC(=O)[C@H](CCCNC(=N)N)NC(=O)[C@@H]3CSSC[C@H](NC1=O)C(=O)N[C@@H]([C@@H](C)O)C(=O)N[C@@H](CCCNC(=N)N)C(=O)NCC(=O)N[C@@H](Cc1ccccc1)C(=O)N3)C(=O)N[C@@H]([C@@H](C)CC)C(=O)N[C@H]1CSSC[C@H](NC(=O)[C@H](Cc3ccccc3)NC(=O)CNC(=O)[C@H](CCCNC(=N)N)NC(=O)[C@H]([C@@H](C)O)NC1=O)C(=O)N[C@@H](CCCNC(=N)N)C(=O)N2 [RTD-3] (cyclo(CICTRGFCRCICTRGFCR); disulfide 1-10, 3-8, 12-17)",less active,RTD-5>2>1>4>3,RTD-5>2>1>4>3,
"CC(C)C[C@@H]1NC(=O)[C@@H]2CSSC[C@H](NC(=O)[C@H](CCCNC(=N)N)NC(=O)[C@@H]3CSSC[C@H](NC1=O)C(=O)N[C@@H](CCCNC(=N)N)C(=O)N[C@@H](CCCNC(=N)N)C(=O)NCC(=O)N[C@@H](C(C)C)C(=O)N3)C(=O)N[C@@H](CC(C)C)C(=O)N[C@H]1CSSC[C@H](NC(=O)[C@H](C(C)C)NC(=O)CNC(=O)[C@H](CCCNC(=N)N)NC(=O)[C@H](CCCNC(=N)N)NC1=O)C(=O)N[C@@H](CCCNC(=N)N)C(=O)N2 [RTD-2] (cyclo(CLCRRGVCRCLCRRGVCR); disulfide 1-10, 3-8, 12-17)",substantially more effective than RTD-1,RTD-5>2>1>4>3,RTD-5>2>1>4>3,
"CC[C@H](C)[C@@H]1NC(=O)CNC(=O)[C@H](CC(C)C)NC(=O)[C@H](C(C)C)NC(=O)[C@@H]2CSSC[C@H](NC1=O)C(=O)N[C@@H](CCCNC(=N)N)C(=O)N[C@H]1CSSC[C@H](NC(=O)[C@H](CCCNC(=N)N)NC(=O)[C@@H]3CSSC[C@H](NC(=O)[C@H]([C@@H](C)CC)NC1=O)C(=O)N[C@@H](CCCNC(=N)N)C(=O)N[C@@H](CCCNC(=N)N)C(=O)NCC(=O)N[C@@H](C(C)C)C(=O)N3)C(=O)N[C@@H]([C@@H](C)CC)C(=O)N2 [RTD-5] (cyclo(CICRRGVCRCICVLGICR); disulfide 1-10, 3-8, 12-17)",substantially more effective than RTD-1,RTD-5>2>1>4>3,RTD-5>2>1>4>3,
"HNP-2: human neutrophil α-defensin purified from human neutrophils (CYCRIPACIAGERRYGTCIYQGRLWAFCC; ends and bridges not checked; cysteine pairing not given here; UniProt P59665 66-94, looked up) [reference compound]",,,,"effect on stimulated TNF release ([2]; E. coli-stimulated, 0–10 µg/ml peptide): no inhibitory effect; effect on stimulated TNF release ([3]; THP-1, 1 ng/ml K12 LPS): no inhibitory effect"
"CC[C@H](C)[C@@H]1NC(=O)CNC(=O)[C@H](CC(C)C)NC(=O)[C@H](C(C)C)NC(=O)[C@@H]2CSSC[C@H](NC1=O)C(=O)N[C@@H](CCCNC(=N)N)C(=O)N[C@H]1CSSC[C@H](NC(=O)[C@H](CCCNC(=N)N)NC(=O)[C@@H]3CSSC[C@H](NC(=O)[C@H]([C@@H](C)CC)NC1=O)C(=O)N[C@@H]([C@@H](C)O)C(=O)N[C@@H](CCCNC(=N)N)C(=O)NCC(=O)N[C@@H](Cc1ccccc1)C(=O)N3)C(=O)N[C@@H]([C@@H](C)CC)C(=O)N2 [RTD-4] (cyclo(CICTRGFCRCICVLGICR); disulfide 1-10, 3-8, 12-17)",less active,RTD-5>2>1>4>3,RTD-5>2>1>4>3,
"LL-37: antimicrobial peptide derived from human cells (LLGDFFRKSKEKIGKEFKRIVQRIKDFLRNLVPRTES; Antibacterial peptide LL-37; UniProt P49913 134-170, looked up)",,,,protection against lethal bacteremia [1]: Protection
"PG-1: porcine protegrin (RGGRLCYCRRRFCVCVGR; ends and bridges not checked; cysteine pairing not given here; UniProt P32194 131-148, looked up)",,,,endotoxin-neutralizing effect [4]: little endotoxin-neutralizing effect; therapeutic effect compared to vehicle control [4]: no therapeutic effect
